Data: patent publication US10131652B2, “Pyrimidinyloxy benzene derivatives as herbicides” (E. I. DU PONT DE NEMOURS AND COMPANY, priority 2014, dated 2018)
Like-named read-outs stand apart in the source and are kept apart here.

Assays:
Format in all cases: in vivo
[1] = tested on: barnyardgrass (Echinochloa crus-galli); assay: Test C flooded paddy test plant response; conditions: Flood, 250 g ai/ha, scale of 0 to 100 where 0 is no effect and 100 is complete control, 13 to 15 days
Method in brief: (§1)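 Visual injury ratings (0, no effect; 100, complete control) were assigned after 13 to 15 days in a greenhouse, comparing treated plants with controls. Compounds had been added straight into paddy water over 2-leaf-stage plants flooded to 3 cm.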

[2] = tested on: small-flower umbrella sedge (Cyperus difformis); assay: Test C flooded paddy test plant response; conditions: Flood, 250 g ai/ha, scale of 0 to 100 where 0 is no effect and 100 is complete control, 13 to 15 days
Method in brief: as §1

[3] = tested on: ducksalad (Heteranthera limosa); assay: Test C flooded paddy test plant response; conditions: Flood, 250 g ai/ha, scale of 0 to 100 where 0 is no effect and 100 is complete control, 13 to 15 days
Method in brief: as §1

rice (Oryza sativa) = assay: Test C flooded paddy test plant response; conditions: Flood, 250 g ai/ha, scale of 0 to 100 where 0 is no effect and 100 is complete control, 13 to 15 days
Method in brief: as §1

[4] = tested on: velvetleaf (Abutilon theophrasti); assay: Test B pre-/postemergence plant response; conditions: for pest or weed control at 1000 g/ha: Abutilon theophrasti, 240 h, 1000 g ai/ha, read-out: Plant response rating, Velvetleaf
Method in brief: (§2)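 Greenhouse pots, loam/sand soil; compound formulated with surfactant in non-phytotoxic solvent. Preemergence soil spray and postemergence spray at 1–2 leaf stage run simultaneously. Visual injury, 0–100, about 10 days post-treatment.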

corn (Zea mays) = assay: Test B pre-/postemergence plant response; conditions: for Corn plant response rating (crop injury, 0 = no effect, 100 = complete kill) at 1000 g/ha: Zea mays, 240 h, 1000 g ai/ha
Method in brief: as §2

[5] = tested on: wheat (Triticum aestivum); assay: Test B pre-/postemergence plant response; conditions: for plant injury at 1000 g/ha: Triticum aestivum, 240 h, 1000 g ai/ha, read-out: Plant response rating, Wheat
Method in brief: as §2

[6] = tested on: barnyardgrass (Echinochloa crus-galli); assay: Test B pre-/postemergence plant response; conditions: for pest or weed control at 1000 g/ha: Echinochloa crus-galli, 240 h, 1000 g ai/ha, read-out: Plant response rating, Barnyardgrass
Method in brief: as §2

[7] = tested on: pigweed (Amaranthus retroflexus); assay: Test B pre-/postemergence plant response; conditions: for pest or weed control at 1000 g/ha: Amaranthus retroflexus, 240 h, 1000 g ai/ha, read-out: Plant response rating, Pigweed
Method in brief: as §2

[8] = tested on: morningglory (Ipomoea spp.); assay: Test B pre-/postemergence plant response; conditions: for pest or weed control at 1000 g/ha: Ipomoea, 240 h, 1000 g ai/ha, read-out: Plant response rating, Morningglory
Method in brief: as §2

[9] = tested on: large (Lg) crabgrass (Digitaria sanguinalis); assay: Test B pre-/postemergence plant response; conditions: for pest or weed control at 1000 g/ha: Digitaria sanguinalis, 240 h, 1000 g ai/ha, read-out: Plant response rating, Crabgrass, Large
Method in brief: as §2

[10] = tested on: giant foxtail (Setaria faberii); assay: Test B pre-/postemergence plant response; conditions: for pest or weed control at 1000 g/ha: Setaria faberi, 240 h, 1000 g ai/ha, read-out: Plant response rating, Foxtail, Giant
Method in brief: as §2

[11] = post-emergence, Postemergence, 0 to 100 scale (0 no effect, 100 complete control)
[12] = pre-emergence, Preemergence, 0 to 100 scale (0 no effect, 100 complete control)
[13] = 125 g ai/ha, postemergence, 0 to 100 scale, 0 no effect, 100 complete control
[14] = Postemergence, 500 g ai/ha, 0 to 100 scale (0 no effect, 100 complete control)
[15] = Preemergence, 125 g ai/ha, 0 to 100 scale where 0 is no effect and 100 is complete control
[16] = Preemergence, 500 g ai/ha, 0 to 100 scale (0 no effect, 100 complete control)

Clc1cnc(Oc2ccccc2-c2cc(Br)no2)nc1 [Compound 12, 2-[2-(3-bromo-5-isoxazolyl)phenoxy]-5-chloropyrimidine]
pest or weed control at 250 g/ha ([1]; Echinochloa crus-galli, read-out: Barnyardgrass plant response rating): 10%
pest or weed control at 250 g/ha ([2]; Cyperus difformis, read-out: Sedge, Umbrella plant response rating): 0%
pest or weed control at 250 g/ha ([3]; Heteranthera limosa, read-out: Ducksalad plant response rating): 40%
plant injury at 250 g/ha (rice (Oryza sativa); Oryza sativa, read-out: Rice plant response rating): 0%
pest or weed control at 1000 g/ha [4, 11]: 90%
pest or weed control at 1000 g/ha [4, 12]: 70%
Corn plant response rating (crop injury, 0 = no effect, 100 = complete kill) at 1000 g/ha (corn (Zea mays); [11]): 0%
Corn plant response rating (crop injury, 0 = no effect, 100 = complete kill) at 1000 g/ha (corn (Zea mays); [12]): 0%
plant injury at 1000 g/ha [5, 11]: 10%
plant injury at 1000 g/ha [5, 12]: 0%
pest or weed control at 1000 g/ha [6, 11]: 40%
pest or weed control at 1000 g/ha [6, 12]: 20%
pest or weed control at 1000 g/ha [7, 11]: 100%
pest or weed control at 1000 g/ha [7, 12]: 90%
pest or weed control at 1000 g/ha [8, 11]: 30%
pest or weed control at 1000 g/ha [8, 12]: 0%
pest or weed control at 1000 g/ha [9, 11]: 30%
pest or weed control at 1000 g/ha [9, 12]: 80%
pest or weed control at 1000 g/ha [10, 11]: 40%
pest or weed control at 1000 g/ha [10, 12]: 90%

FC(F)(F)c1cnc(Oc2ccccc2-c2cncs2)nc1 [Compound 13]
Barnyardgrass plant response rating [1]: 0
Sedge, Umbrella plant response rating [2]: 0
Ducksalad plant response rating [3]: 40
Rice plant response rating (rice (Oryza sativa)): 0
Plant response rating, Velvetleaf [4, 13]: 30
Plant response rating, Velvetleaf [4, 14]: 60
Plant response rating, Velvetleaf [4, 15]: 0
Plant response rating, Velvetleaf [4, 16]: 10
Plant response rating, Corn (corn (Zea mays); [13]): 0
Plant response rating, Corn (corn (Zea mays); [14]): 10
Plant response rating, Corn (corn (Zea mays); [15]): 0
Plant response rating, Corn (corn (Zea mays); [16]): 0
Plant response rating, Wheat [5, 13]: 0
Plant response rating, Wheat [5, 14]: 0
Plant response rating, Wheat [5, 15]: 0
Plant response rating, Wheat [5, 16]: 0
Plant response rating, Barnyardgrass [6, 13]: 0
Plant response rating, Barnyardgrass [6, 14]: 0
Plant response rating, Barnyardgrass [6, 15]: 0
Plant response rating, Barnyardgrass [6, 16]: 0
Plant response rating, Pigweed [7, 13]: 0
Plant response rating, Pigweed [7, 14]: 40
Plant response rating, Pigweed [7, 15]: 0
Plant response rating, Pigweed [7, 16]: 80
Plant response rating, Morningglory [8, 13]: 0
Plant response rating, Morningglory [8, 14]: 10
Plant response rating, Morningglory [8, 15]: 0
Plant response rating, Morningglory [8, 16]: 0
Plant response rating, Crabgrass, Large [9, 13]: 0
Plant response rating, Crabgrass, Large [9, 14]: 10
Plant response rating, Crabgrass, Large [9, 15]: 0
Plant response rating, Crabgrass, Large [9, 16]: 10
Plant response rating, Foxtail, Giant [10, 13]: 0
Plant response rating, Foxtail, Giant [10, 14]: 0
Plant response rating, Foxtail, Giant [10, 15]: 0
Plant response rating, Foxtail, Giant [10, 16]: 10

FC(F)(F)c1cnc(Oc2ccccc2-c2cscn2)nc1 [Compound 14]
Barnyardgrass plant response rating [1]: 0
Sedge, Umbrella plant response rating [2]: 0
Ducksalad plant response rating [3]: 40
Rice plant response rating (rice (Oryza sativa)): 0
Plant response rating, Velvetleaf [4, 13]: 20
Plant response rating, Velvetleaf [4, 14]: 30
Plant response rating, Velvetleaf [4, 15]: 0
Plant response rating, Velvetleaf [4, 16]: 20
Plant response rating, Corn (corn (Zea mays); [13]): 0
Plant response rating, Corn (corn (Zea mays); [14]): 30
Plant response rating, Corn (corn (Zea mays); [15]): 0
Plant response rating, Corn (corn (Zea mays); [16]): 0
Plant response rating, Wheat [5, 13]: 0
Plant response rating, Wheat [5, 14]: 0
Plant response rating, Wheat [5, 15]: 0
Plant response rating, Wheat [5, 16]: 0
Plant response rating, Barnyardgrass [6, 13]: 0
Plant response rating, Barnyardgrass [6, 14]: 0
Plant response rating, Barnyardgrass [6, 15]: 0
Plant response rating, Barnyardgrass [6, 16]: 0
Plant response rating, Pigweed [7, 13]: 0
Plant response rating, Pigweed [7, 14]: 50
Plant response rating, Pigweed [7, 15]: 0
Plant response rating, Pigweed [7, 16]: 100
Plant response rating, Morningglory [8, 13]: 0
Plant response rating, Morningglory [8, 14]: 0
Plant response rating, Morningglory [8, 15]: 0
Plant response rating, Morningglory [8, 16]: 0
Plant response rating, Crabgrass, Large [9, 13]: 0
Plant response rating, Crabgrass, Large [9, 14]: 10
Plant response rating, Crabgrass, Large [9, 15]: 0
Plant response rating, Crabgrass, Large [9, 16]: 20
Plant response rating, Foxtail, Giant [10, 13]: 0
Plant response rating, Foxtail, Giant [10, 14]: 10
Plant response rating, Foxtail, Giant [10, 15]: 0
Plant response rating, Foxtail, Giant [10, 16]: 30
